Experimental data taken from patent publication US20250388495A1, “WATER SA[…], SYSTEM AND METHOD” (WATERCO LIMITED, priority 2020, published 2025).

Experiments:
[1] = Monitoring of H2O2 and ClO2 levels in the test tank during the efficacy test; type: physicochemical
Source text: An apparatus was set up to simulate swimming pool conditions and followed the Australian Pesticides and Veterinary Medicines Authority (APMVA) guidelines. A water tank filled with 180 litres of water recirculates via an ECO 100 pump (Waterco) set at low speed. A Hydrochlor® head unit (Waterco) is connected to a 13-plate low salt cell which is set to run at 100% during the test. A Digiheat unit (Waterco) is set up to control temperature during the tests. A FlowVis® valve (Waterco) was used to estimate flow rate through the apparatus. […] A Kemio™ test kit (Palintest) was used to monitor chlorine dioxide levels. A WDPHRH PER Swimming Pool controller was used to monitor pH and oxidation-reduction potential (ORP) during the tests.

[2] = Field trials: stability of chlorine dioxide in water with hydrogen peroxide; type: physicochemical
Source text: For example, field trials indicate that chlorine dioxide will last in water up to 5 times longer when used in conjunction with hydrogen peroxide.
The process allows chlorine dioxide to remain active in water for up to and beyond 5 days.

[3] = produced by electrolysis with hydrogen peroxide present

| SMILES | effect of the spike of pathogens on the level of the sanitiser [1] | effect of ultraviolet light on chlorine dioxide residual in the water [2, 3] | time chlorine dioxide remains active in water [2, 3] | effect of agitation on chlorine dioxide levels ([2]; used in conjunction with hydrogen peroxide) | how much longer chlorine dioxide will last in water ([2]; used in conjunction with hydrogen peroxide, field trials) |
| --- | --- | --- | --- | --- | --- |
| OO [Hydrogen peroxide] | minimal | – | – | – | – |
| [O][Cl+][O-] [chlorine dioxide] | dramatically affected | does not diminish | ≥ 5 days | not affected by agitation | up to 5 times longer |
